A short description of data set [1]: Preliminary toxicology studies.
For data set [2] the following is noted: rat, in vivo, inhaled or intranasal.
Method: (§1) The specific activity was 50 Ci/mmol. The purity and identity of NAP was ascertained using high performance liquid chromatography (HPLC) Zorbax SB-C18 (250×4.6 mm) 5 μm, and elution with a 5-25% methanol gradient in 0.1% trifluoroacetic acid over 20 minutes and detection by UV at 220 nm and [^3H] detector β-Ram. Two and half microliter of a solution containing 1 mCi/ml were applied to each nostril of a (200-300 g) male Wistar rat. At designated time points, rats were sacrificed and tissues solubilized (100 mg in one ml Luma Solve, Lumac by., Landgraaf, Netherlands, Netherlands) at 55° C. for 12 hours. Radioactivity was determined following the addition of Optiflour (10 ml/100 mg, Packard, Groningen, Netherlands) in a beta scintillation counter.
(§2) For determination of intact NAP in the brain, cortical tissue was homogenized with phosphate buffered saline (PBS) at 4° C. (100 mg/1 ml) and the homogenate was submitted to a 10,000 g centrifugation (10 min.) at 4° C. The resulting supernatant was frozen at −80° C. and further subjected to HPLC (RP-18, Merck, 250×4 mm; 5 μm), employing a linear gradient established between 35% acetonitrile and 75% acetonitrile in water containing 0.1% trifluoroacetic acid (Gozes et al., Proc. Nati. Acad. Sci. U.S.A. 96:4143-4148 (1999)).
For data set [3] the following is noted: rat.
Method: as §1, §2
The next data set relates to neuroblastoma cell. The conditions noted are these: buthionine sulfoximine induced; cited from earlier work.
The test system of another data set is C57-B16J mice. The data set is described as follows: Morris water maze in male offspring after prenatal treatment of pregnant mice. Type of data set: in vivo, mouse. The conditions noted are these: vs vehicle; for Latency to find the hidden platform, prenatal oral single peptide 40 μg: gavage on pregnancy day 8, 40 μg. As to the method: C57-B16J female mice (Jackson Labs) were kept under a 12 h light, 12 h dark regimen with food and water available at all times. The mice received humane animal care in compliance with the “Guideline for Care and Use of Experimental Animals.” Six week old females (21-24 grams) were mated with C57-B16J males for 4 h. The presence of a vaginal plug was considered day 0 pregnancy.
Animals were injected intraperitoneally on pregnancy day 8, or treated on pregnancy day 8 after 1 hour fast with gavage dose of ADNF polypeptides. NAP was diluted in 50 μl DMSO and diluted in filtered Dulbecco 's phosphate buffered saline (DPBS). SAL was dissolved and diluted in filtered DPBS. Control animals were treated with a vehicle (i.e., DPBS). All treatments were coded.
Delivery occurred on day 20, weaning on day 20 of life. Male offspring were eartagged with all identifying markers of coded treatments removed.
Only male mice were used for the water maze trials. Testing of mice began at 35-50 days, typically on day 38, twice daily (two trials) for 7 days.
Morris water maze test used is adapted from “repeated acquisition of a spatial navigation task in mice: Effects of spacing of trials and of unilateral middle cerebral artery occlusion” Klapdor & Van der Staay, Physiology & Behav. 63(5):903-909 (1998). A trial consists of attempting to find the hidden platform from 4 set points. Specifically, testing of mice began in the mornings, typically between 9 and 9:30. Consistent timing is important to any behavioral study. Testing of mice was performed in a random order to prevent chronological bias by the researcher. Maze was set up the day before, to allow water time to adjust to room temperature. 100-150 ml of non-toxic white tempura is added and mixed. […]
On days 2-7, mice are only given 15 seconds on the platform before the initial trial. […] The daily average escape latency is calculated and plotted along the 7 day period for test administration. […]

A short description of data set [4]: Biodistribution and intactness of [3H]-NAP following intranasal administration.
In data set [5] the test system is AF64A-treated rats. As to the kind of experiment: Water maze (two daily tests, hidden platform) in AF64A cholinotoxicity rats, intranasal peptide. It counts as in vivo, rat. The following applies: 1 μg peptide intranasal daily, vs AF64A-vehicle. As to the method: Rats were subjected to two daily tests in a water maze, including a hidden platform (Morris, R., J. Neurosci. Methods 11:47-60 (1984); Gordon et al., Neurosci. Lett. 199:1-4 (1995); Gozes et al., J Neurobiol. 33:329-342. (1997a)). Every day for the first test, both the platform and the animal were situated in a new location with regards to the pool (with the pool being immobile).
The experiment was performed as follows: the animal was positioned on the platform for 0.5 min., then placed in the water. The time required to reach the platform (indicative of learning and intact reference memory) was measured (first test). […] The time required to reach the platform in the second trial was recorded, indicative of short-term (working) memory. […]
After a week of peptide treatment, the animals were subjected to two daily tests in the water maze (as above). […] To avoid bias related to changes in motor activity in the various treatment groups, a probe trial test that assessed spatial memory was also utilized as follows. After four days of training and testing, the platform was removed and on day 5 the animals were subjected to swimming in the pool (120 sec) without the platform; in these experiments, the time spent in the quadrant of the pool where the platform used to be was recorded. […]

The conditions of data set [6]: storage at temperatures <4° C.; cited from earlier work.
Data set [7] has as its system AF64A-treated rats. As to the kind of experiment: Probe trial (platform removed, time in platform quadrant) in rats. Type of data set: in vivo, rat. The following applies: AF64A-treated rats given peptide intranasally vs AF64A-vehicle, 120 sec swim, p<0.001. The text has this:
After a week of peptide treatment, the animals were subjected to two daily tests in the water maze (as above). During the test-period, animals were also given an intranasal administration of peptide or vehicle (carrier) an hour before the daily tests. To avoid bias related to changes in motor activity in the various treatment groups, a probe trial test that assessed spatial memory was also utilized as follows. After four days of training and testing, the platform was removed and on day 5 the animals were subjected to swimming in the pool (120 sec) without the platform; in these experiments, the time spent in the quadrant of the pool where the platform used to be was recorded. Measurements were performed using the HVS video tracking system (HVS Image Ltd. Hampton, UK).

Data set [8] relates to apolipoprotein E-deficient mice. The following applies: injection to newborn mice, short-term memory in three-week-old pups; cited from earlier work.

Square brackets hold non-standard residues; d marks the D form. Ends that are not written are not given here.

For the compound `CC[C@H](C)[C@H](NC(=O)[C@H](CO)NC(=O)[C@@H](NC(=O)[C@@H]1CCCN1C(=O)[C@H](C)NC(=O)[C@@H](N)CC(N)=O)C(C)C)C(=O)N1CCC[C@H]1C(=O)N[C@@H](CCC(N)=O)C(=O)O` [NAP, Asn-Ala-Pro-Val-Ser-Ile-Pro-Gln], in data set [1], the Toxic effects entry is “no toxic effects”. In data set [2], the half-life (commonly the time in which the quantity being followed falls by half) was ~15 min. The “In vivo metabolism by HPLC analysis” value in data set [3] is given as “metabolized in vivo to multiple fragments”. In data set [3] (in vivo), the “Fraction of material intact in the brain, 30 min” value is listed as “at least 12%”; the “Total material eluted from the HPLC column, cortex, 30 min” value came out at 807.8 fmole/g tissue; the “Total material eluted from the HPLC column, cortex, 60 min” value was determined as 1198.9 fmoles/g tissue.

`CCCCS(=N)(=O)CCC(N)C(=O)O` (stereo not drawn) [buthionine sulfoximine, Buthionine sulfoximine]: the “Decrease in neuroblastoma cell viability” value in the data set with neuroblastoma cell is reported as 70-90%.

For the compound “D-NAP: NAP (NAPVSIPQ) made of D-amino acids, for oral administration”, in the data set with C57-B16J mice, the “Latency to find the hidden platform, prenatal oral single peptide 40 μg” value was “trend of faster latencies”.

With “D-SAL: SAL (SALLRSIPA) made of D-amino acids, for oral administration ([dS][dA][dL][dL][dR][dS][dI][dP][dA])”, the “Latency to find the hidden platform, prenatal oral single peptide 40 μg” value in the data set on C57-B16J mice is “trend of faster latencies”. The “Latency to find the hidden platform, prenatal oral double dose 80 μg” value in the data set on C57-B16J mice (gavage on pregnancy day 8, 80 μg) is on record as “perform similarly to the control animals”.

Take NAP, propyl 3-3,4-[^3H] [[^3H]-NAP]: the “Time of highest total radioactivity in the brain (cortex)” value in data set [4] (following intranasal administration) stood at 60 min. Further, the “Radioactivity found (calculated as NAP per g tissue)” value in data set [4] (intranasal 22.75 pmole per rat, compared with 91 fmoles/g assumed for homogeneous distribution) was 45 fmoles/g tissue. The “Organ distribution of total radioactivity” value in data set [4] (intranasal [3H]-NAP, thirty minutes after administration) was “highest levels in the intestine”.

On to SALLRSIPA [ADNF-9], for which the “Latency to reach the hidden platform, first daily test (reference memory)” value with AF64A-treated rats [5] (NAP difference on fourth day of testing (p<0.041)) was “apparent insignificant improvement”. Besides, in the data set on AF64A-treated rats [5] (p<0.001), the “Latency to reach the hidden platform, second daily test (short-term memory)” value was “significant improvements and reduced latencies”. Further, in [6], the “Biological activity of PBS solutions upon storage” value is listed as “lost biological activity”. Moreover, in the data set with AF64A-treated rats [7], the “Time spent in the quadrant of the pool where the platform was previously positioned (probe trial, day 5)” value is “significantly increased”. The “Amelioration/prevention of memory deficits in apolipoprotein E-deficient mice” value in data set [8] is given as “less effective than NAP”.
